Measured values published in patent US5916872A, “Cyclic peptides having broad spectrum antimicrobial activity” (IntraBiotics Pharmaceuticals, Inc., priority 1996, dated 1999).
Values after ≈ are worked out from the molar mass of the structure shown. Positions of bridges follow the written chain, without caps; N, C: chain ends. Residues, ends and D or L forms follow the SMILES beside them.

What was measured:
Format in all cases: cell-based
[1] = tested on: MRSA (methicillin resistant Staphylococcus aureus); test: Modified NCCLS minimum inhibitory concentration (MIC) assay; details: Table 4
From the text: (§1) Microorganisms: Escherichia coli ML-35p and vancomycin-resistant Enterococcus faecium (VRE) were obtained from Dr. Robert Lehrer (UCLA, see also, Lehrer et al., 1988, J. Immunol. Methods 108:153) and Dr. Gary Schoolnik (Stanford), respectively. Pseudomonas aeruginosa (ATCC 9027), Candida albicans (ATCC 1023), and methicillin resistant Staphylococcus aureus (ATCC 33591) were obtained from the American Type Culture Collection, Rockville, Md.
(§2) 8.3 Modified NCCLS Minimum Inhibitory Concentration (MIC) Assay
(§3) The National Committee for Clinical Standards (NCCLS) requires that test compounds be prepared as stock solutions in Meuller-Hinton Broth ("MHB") at 512 μg/mL. The stock solutions are serially diluted (two-fold) in medium and each serial dilution added 1:1 to medium containing 1×10^6 CFU/mL bacteria (National Committee on Clinical Laboratory Standards, December 1994, "Performance Standards for Antimicrobial Susceptibility Testing," NCCLS Document M100-S5 Vol. 14, No. 16; Methods for Dilution Antimicrobial Susceptibility Test for Bacteria that Grow Aerobically, 3d Ed., Approved Standard M7-A3, National Committee for Clinical Standards, Villanova, Pa.).
(§4) Thus, following the NCCLS protocol would result in serial two-fold dilutions containing less peptide than calculated, yielding erroneously high MIC values.
(§5) To overcome this problem, the following modified NCCLS assay is the preferred method for determining MICs of the cyclic peptides of the invention.
(§6) Preparation of MIC assay plates:
(§7) 1. Prepare a fresh overnight culture of test organism in Meuller-Hinton broth (MHB; Becton-Dickinson, Cockysville, Md., BB2 #11443).
(§8) 2. Dilute the culture to approximately 4×10^5 CFUs/mL with fresh MHB and dispense 100 μL aliquots into each well of a sterile 96-well microtiter plate.
(§9) 3. From the peptide stock solution, prepare serial two-fold dilutions (from 1280 μg/mL to 0.625 μg/mL) using acetic acid (0.01%) as a diluent, or, for peptide concentrations lower than 50 μg/mL, sodium acetate (10 mM, pH 5) containing Human Serum Albumin (HSA; 0.1% w/v) as a diluent.
(§10) 4. Dispense triplicate aliquots (11 μL) of each serial dilution into the wells of the microtiter plate.
(§11) 5. Incubate the plate for 16-18 hours, without aeration, at 37° C. (bacteria) or 30° C. (yeast).
(§12) 6. Examine the plates and evaluate each well for turbidity (cell growth). Often, MRSA will settle out and form a pellet at the bottom of the well. MRSA can be evaluated by placing the microtiter plate on a stand and examining the bottom of the well using a tilted mirror.
(§13) 7. The minimum inhibitory concentration (MIC) is defined as the lowest peptide concentration that inhibits all visible growth. If the MIC values for each of the triplicate samples differ, the MIC is obtained by averaging the results of the three samples. […]

Pseudomonas aeruginosa = test: as above; details: Table 4; Psa is Pseudomonas aeruginosa
From the text: as §1, §2, §3, §4, §5, §6, §7, §8, §9, §10, §11, §12, §13

[2] = tested on: MRSA (methicillin resistant Staphylococcus aureus); test: Kinetic bactericidal assay; details: 2 μg/mL peptide, from an initial value of 3.3 × 10^5 CFUs
From the text: as §1
8.4 Kinetic Bactericidal Assay
The following assay is used to determine the rate at which a cyclic peptide kills a target microorganism, as well as to determine if a cyclic peptide is bactericidal or bacteriostatic.
1. Dispense 200 μL of log-phase cells in LTM (4×10^5 CFUs/mL) into each well of a 96-well microtiter plate solution.
2. At time T=0 minutes, add 22 μL of 1280 μg/mL peptide to well A1 and mix by triturating 3 times.
3. Wait 30 seconds and add 22 μL of a second concentration of peptide the to the next well (A2) and mix by triturating 3 times.
4. Repeat the process, staggering each peptide addition by 30 seconds, until all concentrations of peptide have been added. Typically, 4-fold serial dilutions of stock peptide (i.e., 1280, 320, 80, 20 and 5 μg/mL peptide diluted 1:10 into each well) produces good comparative kill curves. Add 22 μL of 0.01% acetic acid to one well as a control.
5. At time T=15 minutes, mix well A1 by triturating 3 times and transfer 20 μL to an empty sterile petri dish (100 mm×15 mm).
6. Quickly add 20 mL of tempered (50° C.) TSA and gently swirl plate to mix.
7. Repeat steps 5-6 until all peptide concentrations have been plated.
8. For the control well, dilute the sample 1:100 with LTM and plate 50 μL of the dilution to obtain an accurate determinations of CFUs.
9. After the agar has solidified, invert the plates and incubate at 37° C. (bacteria) 30° C. (yeast) for 18-24 hours.
10. Repeat steps 5-9 for all peptide concentrations and control samples at times T=30, 60, 120, and 240 minutes.
11. Count the number of CFUs per plate and estimate the reduction in CFUs for each peptide concentration. In order to assess an effect using this assay, the peptide must reduce the CFUs by at least one log (i.e., at least 800 CFUs per plate). Although such numbers are higher than recommended for accuracy (30-300 CFUs/plate), log-order changes in recoverable CFUs indicate significant bacteriocidal efficacy.
12. To obtain comparative kill curves, plot the log of fractional survival versus peptide concentration.

Compound | MIC Values MRSA [1] | MIC Values Psa (Pseudomonas aeruginosa) | MRSA Kill Kinetics 15 min [2] | MRSA Kill Kinetics 120 min [2]
RLCYCRRRFCVCVV [RLCYCRRRFCVCVV.dagger.] | 2 µg/mL | 4 µg/mL |  | 
WLCYCRRRFCVCV | 32 µg/mL | 13 µg/mL |  | 
CC(C)C[C@@H]1NC(=O)[C@H](CCCNC(=N)N)NC(=O)[C@H](C(C)C)NC(=O)[C@@H]2CSSC[C@H](NC1=O)C(=O)N[C@@H](Cc1ccc(O)cc1)C(=O)N[C@H]1CSSC[C@H](NC(=O)[C@H](Cc3ccccc3)NC(=O)[C@H](CCCNC(=N)N)NC(=O)[C@H](CCCNC(=N)N)NC(=O)[C@H](CCCNC(=N)N)NC1=O)C(=O)N[C@@H](C(C)C)C(=O)N2 [cyclo(CYCRRRFCVCVRL)] (cyclo(CRRRFCVCVRLCY); disulfide 1-6, 8-12) | 16 µg/mL (≈ 9.67 µM) | 2.67 µg/mL (≈ 1.61 µM) |  | 
CC(C)[C@@H]1NC(=O)[C@@H]2CSSC[C@H](NC(=O)[C@H](Cc3ccc(O)cc3)NC(=O)[C@H](Cc3c[nH]c4ccccc34)NC1=O)C(=O)N[C@@H](Cc1ccc(O)cc1)C(=O)N[C@H]1CSSC[C@H](NC(=O)[C@H](Cc3ccccc3)NC(=O)[C@H](CCCNC(=N)N)NC(=O)[C@H](CCCNC(=N)N)NC(=O)[C@H](CCCNC(=N)N)NC1=O)C(=O)N[C@@H](C(C)C)C(=O)N2 [cyco(CYCRRRFCVCVWY), cyclo(CYCRRRFCVCVWY)] (cyclo(CRRRFCVCVWYCY); disulfide 1-6, 8-12) | 8 µg/mL (≈ 4.61 µM) | 32 µg/mL (≈ 18.4 µM) |  | 
RLCYCRRRFCVCV | 10.7 µg/mL | 2 µg/mL |  | 
WLCYCRRRFCVCVGR [WLCYCRRRFCVCVGR.dagger.] |  |  | 1.79 log reduction | 2.26 log reduction
CC(C)C[C@@H]1NC(=O)[C@H](CCCNC(=N)N)NC(=O)CNC(=O)CNC(=O)[C@H](CCCNC(=N)N)NC(=O)[C@H](CCCNC(=N)N)NC(=O)CNC(=O)[C@H](C(C)C)NC(=O)[C@@H]2CSSC[C@H](NC1=O)C(=O)N[C@@H](Cc1ccc(O)cc1)C(=O)N[C@H]1CSSC[C@H](NC(=O)[C@H](Cc3ccccc3)NC(=O)[C@H](CCCNC(=N)N)NC(=O)[C@H](CCCNC(=N)N)NC(=O)[C@H](CCCNC(=N)N)NC1=O)C(=O)N[C@@H](C(C)C)C(=O)N2 [cyclo(CYCRRRFCVCVGRRGGRL)] (cyclo(GGRLCYCRRRFCVCVGRR); disulfide 5-14, 7-12) | 5.33 µg/mL (≈ 2.49 µM) | 8 µg/mL (≈ 3.74 µM) | 1.2 log reduction | 1.17 log reduction
WLCYCRRRFCVCV [WLCYCRRRFCVCV.dagger.] | 3.33 µg/mL | > 32 µg/mL | 2.12 log reduction | 2.89 log reduction
RGGRLCYCRRRFCVCVGR | 4 µg/mL | 0.5 µg/mL |  | 
CC(C)C[C@@H]1NC(=O)[C@H](Cc2c[nH]c3ccccc23)NC(=O)[C@H](C(C)C)NC(=O)[C@@H]2CSSC[C@H](NC1=O)C(=O)N[C@@H](Cc1ccc(O)cc1)C(=O)N[C@H]1CSSC[C@H](NC(=O)[C@H](Cc3ccccc3)NC(=O)[C@H](CCCNC(=N)N)NC(=O)[C@H](CCCNC(=N)N)NC(=O)[C@H](CCCNC(=N)N)NC1=O)C(=O)N[C@@H](C(C)C)C(=O)N2 [cyclo(CYCRRRFCVCVWL)] (cyclo(CRRRFCVCVWLCY); disulfide 1-6, 8-12) | 4 µg/mL (≈ 2.37 µM) | > 32 µg/mL | 2.65 log reduction | 2.18 log reduction
WYCYCRRRFCVCV | 43 µg/mL | 32 µg/mL |  | 
WLCYCRRRFCVCVGR | 32 µg/mL | 32 µg/mL | < 0.46 log reduction | < 0.46 log reduction
